Assay results from patent US20090048269A1 (AstraZeneca AB, priority 2007, published 2009).

Target: T1, human ALK5 (Homo sapiens, UniProt P36897)
T1 sequence (P36897 162-503): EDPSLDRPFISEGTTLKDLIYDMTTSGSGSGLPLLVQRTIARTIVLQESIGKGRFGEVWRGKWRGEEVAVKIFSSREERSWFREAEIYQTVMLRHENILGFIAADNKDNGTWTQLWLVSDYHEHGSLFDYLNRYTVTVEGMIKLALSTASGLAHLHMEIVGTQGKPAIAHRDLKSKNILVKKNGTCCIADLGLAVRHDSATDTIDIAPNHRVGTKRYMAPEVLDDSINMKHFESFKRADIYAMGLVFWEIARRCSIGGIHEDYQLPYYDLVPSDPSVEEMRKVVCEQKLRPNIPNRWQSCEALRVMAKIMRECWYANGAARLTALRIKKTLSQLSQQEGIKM
Assay: ALK5 Enzyme Assay 2 (fluorescence polarisation probe displacement)
Type: binding
Set-up: 6His tagged human ALK5 (residues162-503) was grown and purified from insect cells; 6His; made in house; host or cells: insect cells
Conditions: read-out: EAA2: activity (μM) using Enzyme Assay 2
Experimental: The ability of a compound to bind and inhibit ALK5 can be measured by its capacity to displace a probe molecule from recombinant ALK5 in an in vitro assay. Provided the probe molecule is derivatised with a fluorescent probe or is fluorescent itself, the binding affinity can be measured using Fluorescence Polarisation (FP). […] Assay measurements were performed in 50 mM HEPES pH7.4, 10 mM MgCl2, 1 mM DTT, 0.01% CHAPS in a final assay volume of 12 μl. Briefly 6 μl of ALK5 protein, final concentration of 3 μg/mL, was added to each well of a 384 well assay plate containing 12 nL of each concentration of test compound dissolved in DMSO. 6 μL of a solution containing an ALK5 FP probe ((2Z)-3-(6-{4-[2-({4-[(6-chloro[1,3]dioxolo[4,5-b]pyridin-7-yl)amino]-5-(1-methylethoxy)quinazolin-7-yl}oxy)ethyl]piperazin-1-yl}-6-oxohexyl)-2-[(2E,4E)-5-(3-ethyl-1,1-dimethyl-6,8-disulfo-1H-benzo[e]indolium-2-yl)penta-2,4-dien-1-ylidene]-1,1-dimethyl-6-sulfo-2,3-dihydro-1H-benzo[e]indole-8-sulfonate), final concentration 50 nM, and ATP, final concentration 1 μM.

| SMILES | IC50 [µM] |
| --- | --- |
| Cc1ccc(Oc2ccnc(Nc3ccc(S(=O)(=O)N(C)C)cc3)c2)c(C)n1 [Example 117, 4-{[4-(2,6-Dimethylpyridin-3-yl)oxypyridin-2-yl]amino}-N,N-dimethylbenzenesulfonamide] | 0.37 |
| Cc1ccc(Oc2ccnc(Nc3cccc(C(=O)NCC(N)=O)c3)c2)c(C)n1 [Example 67, N-(2-Amino-2-oxoethyl)-3-{[4-(2,6-dimethylpyridin-3-yl)-oxypyridin-2-yl]amino}benzamide] | 0.054 |
| COCC(C)NS(=O)(=O)c1ccc(Nc2cc(Oc3ccc(C)nc3C)ccn2)cc1 (stereo not shown) [Example 118, 4-{[4-(2,6-Dimethylpyridin-3-yl)oxypyridin-2-yl]amino}-N-(1-methoxypropan-2-yl)benzenesulfonamide] | 0.155 |
| Cc1ccc(Oc2ccnc(Nc3ccc(S(=O)(=O)NC4CCC4)cc3)c2)c(C)n1 [Example 113, N-Cyclobutyl-4-{[4-(2,6-dimethylpyridin-3-yl)oxypyridin-2-yl]-amino}benzenesulfonamide] | 0.288 |
| Cc1ccc(Oc2ccnc(Nc3cccc(O)c3)c2)c(C)n1 [Example 126, 3-{[4-(2,6-Dimethylpyridin-3-yl)oxypyridin-2-yl]amino}phenol] | 0.0377 |
| Cc1ccc(Oc2ccnc(Nc3ccc(C(=O)N(C)C)cc3)c2)c(C)n1 [Example 121, 4-{[4-(2,6-Dimethylpyridin-3-yl)oxypyridin-2-yl]amino}-N,N-dimethylbenzamide] | 0.088 |
| Cc1ccc(Oc2ccnc(Nc3cccc(C#N)c3)c2)c(C)n1 [Example 125, 3-{[4-(2,6-Dimethylpyridin-3-yl)oxypyridin-2-yl]amino}-benzonitrile] | 0.192 |
| Cc1ccc(Oc2ccnc(Nc3ccc(C(=O)NCCN4CCCC4=O)cc3)c2)c(C)n1 [Example 141, 4-{[4-(2,6-dimethylpyridin-3-yl)oxypyridin-2-yl]amino}-N-[2-(2-oxopyrrolidin-1-yl)ethyl]benzamide] | 0.0693 |
| Cc1ccc(Oc2ccnc(Nc3ccc(S(=O)(=O)NCCN4CC[C@H](F)C4)cc3)c2)c(C)n1 [Example 137] | 0.163 |
| Cc1ccc(Oc2ccnc(Nc3ccc(S(N)(=O)=O)cc3)c2)c(-c2ccc(F)cc2)n1 [Example 156, 4-({4-[2-(4-Fluorophenyl)-6-methylpyridin-3-yl]oxypyridin-2-yl}amino)benzenesulfonamide] | 0.0454 |
| Cc1ccc(Oc2ccnc(Nc3ccc(C#N)cc3)c2)c(C)n1 [Example 89, 4-{[4-(2,6-Dimethylpyridin-3-yl)oxypyridin-2-yl]amino}-benzonitrile] | 0.346 |
| CC(=O)N(C)c1ccc(Nc2cc(Oc3ccc(C)nc3C)ccn2)cc1 [Example 122, N-(4-{[4-(2,6-Dimethylpyridin-3-yl)oxypyridin-2-yl]amino}-phenyl)-N-methylacetamide] | 0.215 |
| Cc1ccc(Oc2ccnc(Nc3cccc(S(=O)(=O)Nc4ccccc4)c3)c2)c(C)n1 [Example 111, 3-{[4-(2,6-Dimethylpyridin-3-yl)oxypyridin-2-yl]amino}-N-phenylbenzenesulfonamide] | 0.621 |
| Cc1ccc(Oc2ccnc(Nc3ccc(C(=O)NCCNS(=O)(=O)N(C)C)cc3)c2)c(C)n1 [Example 142, 4-{[4-(2,6-Dimethylpyridin-3-yl)oxypyridin-2-yl]amino}-N-[2-(dimethylsulfamoylamino)ethyl]benzamide] | 0.0506 |

These reach a lower IC50. Values come first.

| IC50 [µM] | SMILES |
| --- | --- |
| 0.0276 | Cc1ccc(Oc2ccnc(Nc3ccc(CC#N)cc3)c2)c(-c2ccccn2)n1 [Example 144, 2-(4-{[4-(6-Methyl-2-pyridin-2-ylpyridin-3-yl)oxypyridin-2-yl]-amino}phenyl)acetonitrile] |
| 0.0259 | CC(=O)N(C)c1ccc(Nc2cc(Oc3cc(C)c(C)nc3-c3ccccn3)ccn2)cc1 [Example 83, N-(4-{[4-(5,6-Dimethyl-2-pyridin-2-ylpyridin-3-yl)oxypyridin-2-yl]-amino}phenyl)-N-methylacetamide] |
| 0.0238 | Cc1ccc(Oc2ccnc(Nc3ccccn3)c2)c(C)n1 [Example 153, 4-(2,6-Dimethylpyridin-3-yl)oxy-N-pyridin-2-ylpyridin-2-amine] |
| 0.0214 | Cc1ccc(Oc2ccnc(Nc3cccc(C(=O)N(C4CC4)C4CCN(C)CC4)c3)c2)c(C)n1 [Example 59, N-Cyclopropyl-3-{[4-(2,6-dimethylpyridin-3-yl)oxypyridin-2-yl]-amino}-N-(1-methylpiperidin-4-yl)benzamide] |
| 0.0185 | Cc1ccc(Oc2ccnc(Nc3cccc(C(=O)N4CCC(S(C)(=O)=O)C4)c3)c2)c(C)n1 (stereo not shown) [Example 66, (3-{[4-(2,6-Dimethylpyridin-3-yl)oxypyridin-2-yl]amino}phenyl)-(3-methylsulfonylpyrrolidin-1-yl)methanone] |
| 0.0159 | CCCCCNC(=O)N1CCN(Cc2cccc(Nc3cc(Oc4ccc(C)nc4C)ccn3)c2)CC1 [Example 181, 4-[(3-{[4-(2,6-Dimethylpyridin-3-yl)oxypyridin-2-yl]amino}-phenyl)methyl]-N-pentylpiperazine-1-carboxamide] |
| 0.0152 | Cc1ccc(Oc2ccnc(Nc3ccc(C(N)=O)cc3)c2)c(-c2ccccn2)n1 [Example 146, 4-{[4-(6-Methyl-2-pyridin-2-ylpyridin-3-yl)oxypyridin-2-yl]-amino}benzamide] |
| 0.0147 | Cc1cc(Oc2ccnc(Nc3ccc(C(=O)NCCNC(=O)OC(C)(C)C)cc3)c2)c(-c2ccccn2)nc1C [Example 198, tert-Butyl N-{2-[(4-{[4-(5,6-dimethyl-2-pyridin-2-ylpyridin-3-yl)oxypyridin-2-yl]amino}benzoyl)amino]ethyl}carbamate] |
| 0.0137 | Cc1ccc(Oc2ccnc(Nc3ccc(C(N)=O)cc3)c2)c(-c2ccccc2)n1 [Example 151, 4-{[4-(6-Methyl-2-phenylpyridin-3-yl)oxypyridin-2-yl]amino}-benzamide] |
| 0.0121 | Cc1cc(Oc2ccnc(Nc3ccc(OCCNC(=O)OC(C)(C)C)cc3)c2)c(-c2ccccn2)nc1C [Example 195, tert-Butyl N-[2-(4-{[4-(5,6-dimethyl-2-pyridin-2-ylpyridin-3-yl)-oxypyridin-2-yl]amino}phenoxy)ethyl]carbamate] |
| 0.0113 | Cc1cc(Oc2ccnc(Nc3cccc(C(=O)N4CCCCCC4)c3)c2)c(-c2ccccn2)nc1C [Example 102, Azepan-1-yl-(3-{[4-(5,6-dimethyl-2-pyridin-2-ylpyridin-3-yl)-oxypyridin-2-yl]amino}phenyl)methanone] |
| 0.00895 | Cc1ccc(Oc2ccnc(Nc3cccc(C(=O)N4CCCC(C(N)=O)C4)c3)c2)c(C)n1 (stereo not shown) [Example 68, 1-(3-{[4-(2,6-Dimethylpyridin-3-yl)oxypyridin-2-yl]amino}-benzoyl)piperidine-3-carboxamide] |
| 0.00764 | Cc1ccc(Oc2ccnc(Nc3cccc(S(N)(=O)=O)c3)c2)c(C)n1 [Example 105, 3-{[4-(2,6-Dimethylpyridin-3-yl)oxypyridin-2-yl]amino}benzene-sulfonamide] |
| 0.00734 | Cc1cc(Oc2ccnc(Nc3cccc(C(=O)NCc4ccccn4)c3)c2)c(-c2ccccn2)nc1C [Example 99, 3-{[4-(5,6-Dimethyl-2-pyridin-2-ylpyridin-3-yl)oxypyridin-2-yl]-amino}-N-(pyridin-2-ylmethyl)benzamide] |
| 0.00705 | Cc1ccc(Oc2ccnc(Nc3ccc(CO)cc3)c2)c(-c2ccccc2)n1 [Example 152, (4-{[4-(6-Methyl-2-phenylpyridin-3-yl)oxypyridin-2-yl]amino}-phenyl)methanol] |
| 0.00691 | Cc1ccc(Oc2ccnc(Nc3cccc(CN4CCN(CC(=O)NC5CC5)CC4)c3)c2)c(C)n1 [Example 188, N-cyclopropyl-2-{4-[(3-{[4-(2,6-dimethylpyridin-3-yl)oxypyridin-2-yl]amino}phenyl)methyl]piperazin-1-yl}acetamide] |
| 0.00611 | Cc1ccc(Oc2ccnc(Nc3cccc(CN4CCN(S(C)(=O)=O)CC4)c3)c2)c(C)n1 [Example 175, 4-(2,6-Dimethylpyridin-3-yl)oxy-N-{3-[(4-methylsulfonyl-piperazin-1-yl)methyl]phenyl}pyridin-2-amine] |
| 0.00576 | Cc1cc(Oc2ccnc(Nc3cccc(C(=O)NCc4ccncc4)c3)c2)c(-c2ccccn2)nc1C [Example 100, 3-{[4-(5,6-Dimethyl-2-pyridin-2-ylpyridin-3-yl)oxypyridin-2-yl]-amino}-N-(pyridin-4-ylmethyl)benzamide] |
| 0.00393 | Cc1cc(Oc2ccnc(Nc3cccc(O)c3)c2)c(-c2ccccn2)nc1C [Example 201, 3-{[4-(5,6-Dimethyl-2-pyridin-2-ylpyridin-3-yl)oxypyridin-2-yl]-amino}phenol] |
| 0.00145 | Cc1cc(Oc2ccnc(Nc3ccc(C(=O)NCCCN)cc3)c2)c(-c2ccccn2)nc1C [Example 199, N-(3-Aminopropyl)-4-{[4-(5,6-dimethyl-2-pyridin-2-ylpyridin-3-yl)oxypyridin-2-yl]amino}benzamide] |
